# Reference: patent US20190169562A1, “SCREENING OF IMMUNO-MODULATORY THERAPIES” (zPredicta, Inc., priority 2016, published 2019)
# Test system: malignant plasma cells
# Assay: bone marrow aspirates from multiple myeloma patients cultured in r-Bone and treated with pomalidomide
# Assay type: cell-based, human
# Settings: patient bone marrow (n=10) in r-Bone, FIG. 4
# Protocol: This example tested bone marrow aspirated from patients with multiple myeloma (n=10) were cultured in r-Bone system and treated with pomalidomide.
smiles,measurement,value
"Nc1cccc2c1C(=O)N(C1CCC(=O)NC1=O)C2=O (stereo not shown) [pomalidomide, Pomalidomide]",elimination of malignant plasma cells,eliminated malignant plasma cells in a dose dependent manner
